From PubChem BioAssay (NCI)
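Here, GI50 denotes the concentration required for 50% inhibition of growth. TGI denotes the concentration required for complete inhibition of growth.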

Legend:
Assay in all cases: NCI anticancer screen, dose series, 384-well format
HCC-2998 colon = tested on: HCC-2998 colon
SF-268 CNS = tested on: SF-268 CNS
SF-295 CNS = tested on: SF-295 CNS
NCI-H23 lung = tested on: NCI-H23 lung
HT29 colon = tested on: HT29 colon
MDA-MB-231 breast = tested on: MDA-MB-231 breast
HCT-116 colon = tested on: HCT-116 colon
SNB-75 CNS = tested on: SNB-75 CNS
BT-549 breast = tested on: BT-549 breast
HCT-15 colon = tested on: HCT-15 colon
786-0 renal = tested on: 786-0 renal
CAKI-1 renal = tested on: CAKI-1 renal
UO-31 renal = tested on: UO-31 renal
OVCAR-4 ovarian = tested on: OVCAR-4 ovarian
SK-MEL-5 melanoma = tested on: SK-MEL-5 melanoma
MALME-3M melanoma = tested on: MALME-3M melanoma
SNB-19 CNS = tested on: SNB-19 CNS
MCF7 breast = tested on: MCF7 breast
A549 NSCLC = tested on: A549 NSCLC
SK-OV-3 ovarian = tested on: SK-OV-3 ovarian
DU-145 prostate = tested on: DU-145 prostate
ACHN renal = tested on: ACHN renal
KM12 colon = tested on: KM12 colon
T-47D breast = tested on: T-47D breast
PC-3 prostate = tested on: PC-3 prostate
IGROV1 ovarian = tested on: IGROV1 ovarian
NCI-H322M lung = tested on: NCI-H322M lung
LOX IMVI melanoma = tested on: LOX IMVI melanoma
A498 renal = tested on: A498 renal
RPMI-8226 leukemia = tested on: RPMI-8226 leukemia
OVCAR-5 ovarian = tested on: OVCAR-5 ovarian
NCI/ADR-RES ovarian = tested on: NCI/ADR-RES ovarian
SW-620 colon = tested on: SW-620 colon
UACC-257 melanoma = tested on: UACC-257 melanoma
MOLT-4 leukemia = tested on: MOLT-4 leukemia
EKVX NSCLC = tested on: EKVX NSCLC
HL-60(TB) leukemia = tested on: HL-60(TB) leukemia
RXF 393 renal = tested on: RXF 393 renal
SF-539 CNS = tested on: SF-539 CNS
U251 glioblastoma = tested on: U251 glioblastoma
K-562 leukemia = tested on: K-562 leukemia
MDA-MB-435 melanoma = tested on: MDA-MB-435 melanoma
NCI-H460 NSCLC = tested on: NCI-H460 NSCLC
NCI-H226 lung = tested on: NCI-H226 lung
CCRF-CEM leukemia = tested on: CCRF-CEM leukemia
OVCAR-8 ovarian = tested on: OVCAR-8 ovarian
UACC-62 melanoma = tested on: UACC-62 melanoma
HS 578T breast = tested on: HS 578T breast
HOP-62 NSCLC = tested on: HOP-62 NSCLC
M14 melanoma = tested on: M14 melanoma
SN12C renal = tested on: SN12C renal
NCI-H522 lung = tested on: NCI-H522 lung
MDA-MB-468 breast = tested on: MDA-MB-468 breast
HOP-92 NSCLC = tested on: HOP-92 NSCLC
SK-MEL-28 melanoma = tested on: SK-MEL-28 melanoma
TK-10 renal = tested on: TK-10 renal
COLO 205 colon = tested on: COLO 205 colon
OVCAR-3 ovarian = tested on: OVCAR-3 ovarian

SMILES: Cc1ccc(-n2nc(C(C)(C)C)cc2NC(=O)NCc2cc(F)ccc2Oc2ccc3c(cnn3CCO)c2)cc1
- GI50 (HCC-2998 colon): 3.47 µM
- TGI (HCC-2998 colon): 13.2 µM
- GI50 (SF-268 CNS): 0.0455 µM
- TGI (SF-268 CNS): 1.62 µM
- GI50 (SF-295 CNS): 18 µM
- TGI (SF-295 CNS): > 100 µM
- GI50 (NCI-H23 lung): 1.78 µM
- TGI (NCI-H23 lung): 6.08 µM
- GI50 (HT29 colon): 1.86 µM
- TGI (HT29 colon): 13.8 µM
- GI50 (MDA-MB-231 breast): 3.17 µM
- TGI (MDA-MB-231 breast): > 100 µM
- GI50 (HCT-116 colon): 3.13 µM
- TGI (HCT-116 colon): 16 µM
- GI50 (SNB-75 CNS): 12.2 µM
- TGI (SNB-75 CNS): 89 µM
- GI50 (BT-549 breast): 4.9 µM
- TGI (BT-549 breast): 27.2 µM
- GI50 (HCT-15 colon): 5.14 µM
- TGI (HCT-15 colon): > 100 µM
- GI50 ([…]-0 renal): 4.93 µM
- TGI (786-0 renal): > 100 µM
- GI50 (CAKI-1 renal): 3.07 µM
- TGI (CAKI-1 renal): > 100 µM
- GI50 (UO-31 renal): 3.16 µM
- TGI (UO-31 renal): 20.8 µM
- GI50 (OVCAR-4 ovarian): 12.5 µM
- TGI (OVCAR-4 ovarian): 31.8 µM
- GI50 (SK-MEL-5 melanoma): 1.06 µM
- TGI (SK-MEL-5 melanoma): 6.63 µM
- GI50 (MALME-3M melanoma): 0.357 µM
- TGI (MALME-3M melanoma): 1.49 µM
- GI50 (SNB-19 CNS): 29.1 µM
- TGI (SNB-19 CNS): > 100 µM
- GI50 (MCF7 breast): 2.7 µM
- TGI (MCF7 breast): 14.3 µM
- GI50 (A549 NSCLC): 7.81 µM
- TGI (A549 NSCLC): > 100 µM
- GI50 (SK-OV-3 ovarian): 9.15 µM
- TGI (SK-OV-3 ovarian): > 100 µM
- GI50 (DU-145 prostate): 15 µM
- TGI (DU-145 prostate): > 100 µM
- GI50 (ACHN renal): 3.28 µM
- TGI (ACHN renal): 62.9 µM
- GI50 (KM12 colon): 1.56 µM
- TGI (KM12 colon): 11.9 µM
- GI50 (T-47D breast): 1.82 µM
- TGI (T-47D breast): 8.64 µM
- GI50 (PC-3 prostate): 6.72 µM
- TGI (PC-3 prostate): 53.1 µM
- GI50 (IGROV1 ovarian): 2.39 µM
- TGI (IGROV1 ovarian): 18 µM
- GI50 (NCI-H322M lung): 6.36 µM
- TGI (NCI-H322M lung): > 100 µM
- GI50 (LOX IMVI melanoma): 1.62 µM
- TGI (LOX IMVI melanoma): 4.41 µM
- GI50 (A498 renal): 8.98 µM
- TGI (A498 renal): 71.8 µM
- GI50 (RPMI-8226 leukemia): 4.07 µM
- TGI (RPMI-8226 leukemia): 32 µM
- GI50 (OVCAR-5 ovarian): 4.52 µM
- TGI (OVCAR-5 ovarian): 50.9 µM
- GI50 (NCI/ADR-RES ovarian): 7.83 µM
- TGI (NCI/ADR-RES ovarian): 66.4 µM
- GI50 (SW-620 colon): 10.5 µM
- TGI (SW-620 colon): > 100 µM
- GI50 (UACC-257 melanoma): 1.87 µM
- TGI (UACC-257 melanoma): 5.7 µM
- GI50 (MOLT-4 leukemia): 1.9 µM
- TGI (MOLT-4 leukemia): 5.02 µM
- GI50 (EKVX NSCLC): 4.58 µM
- TGI (EKVX NSCLC): 27.7 µM
- GI50 (HL-60(TB) leukemia): 1.67 µM
- TGI (HL-60(TB) leukemia): 4.48 µM
- GI50 (RXF 393 renal): 3.38 µM
- TGI (RXF 393 renal): 14.5 µM
- GI50 (SF-539 CNS): 2.72 µM
- TGI (SF-539 CNS): 28.6 µM
- GI50 (U251 glioblastoma): 10.3 µM
- TGI (U251 glioblastoma): > 100 µM
- TGI (K-562 leukemia): 0.0258 µM
- GI50 (MDA-MB-435 melanoma): 2.74 µM
- TGI (MDA-MB-435 melanoma): 89.2 µM
- GI50 (NCI-H460 NSCLC): 6.4 µM
- TGI (NCI-H460 NSCLC): 20.6 µM
- GI50 (NCI-H226 lung): 0.44 µM
- TGI (NCI-H226 lung): 13.3 µM
- GI50 (CCRF-CEM leukemia): 4.51 µM
- TGI (CCRF-CEM leukemia): 16.7 µM
- GI50 (OVCAR-8 ovarian): 13 µM
- TGI (OVCAR-8 ovarian): > 100 µM
- GI50 (UACC-62 melanoma): 0.665 µM
- TGI (UACC-62 melanoma): 5.74 µM
- GI50 (HS 578T breast): 2.63 µM
- TGI (HS 578T breast): 15.6 µM
- GI50 (HOP-62 NSCLC): 4.67 µM
- TGI (HOP-62 NSCLC): 27.1 µM
- GI50 (M14 melanoma): 0.427 µM
- TGI (M14 melanoma): 3.11 µM
- GI50 (SN12C renal): 3.94 µM
- TGI (SN12C renal): 33 µM
- GI50 (NCI-H522 lung): 3.91 µM
- TGI (NCI-H522 lung): 17.1 µM
- GI50 (MDA-MB-468 breast): 4.56 µM
- TGI (MDA-MB-468 breast): 15 µM
- GI50 (HOP-92 NSCLC): 4.1 µM
- TGI (HOP-92 NSCLC): 29.8 µM
- GI50 (SK-MEL-28 melanoma): 1.26 µM
- TGI (SK-MEL-28 melanoma): 4.32 µM
- GI50 (TK-10 renal): 13.9 µM
- TGI (TK-10 renal): 87.4 µM
- GI50 (COLO 205 colon): 1.26 µM
- TGI (COLO 205 colon): 12.3 µM
- GI50 (OVCAR-3 ovarian): 8.85 µM
- TGI (OVCAR-3 ovarian): 24.3 µM
